Assay results from ChEMBL document CHEMBL1129192, “D-Phe-Pro-p-Amidinobenzylamine: A potent and highly selective thrombin inhibitor” (Bioorg Med Chem Lett, 1996).
Where a SMILES comes first, the peptide text is derived from it.

Key:
[1] = Ratio of Thrombin Kass/Urokinase Kass
[2] = Ratio of Thrombin Kass/plasmin Kass
[3] = Ratio of Thrombin Kass/tissue plasminogen activator Kass
[4] = Ratio of Thrombin Kass/trypsin Kass

Compound | Selectivity [1] | Selectivity [2] | Selectivity [3] | Selectivity [4]
NC(N)=NCCC[C@@H](C=O)NC(=O)[C@@H]1CCCN1C(=O)[C@H](N)Cc1ccccc1 | 13000 | 390 | 1800 | 5.1
NC(N)=NCCCCNC(=O)[C@@H]1CCCN1C(=O)[C@H](N)Cc1ccccc1 (HELM PEPTIDE1{[dF].P.[N=C(N)NCCCCN[*:1]]}$$$$V2.0) | 31000 | 4600 | 920 | 33
N=C(N)c1ccc(CNC(=O)[C@@H]2CCCN2C(=O)[C@H](N)Cc2ccccc2)cc1 | 400000 | 26000 | 170000 | 130
